Data: PMC3006207, “Phosphorylation-Dependent Protein Interaction with Trypanosoma brucei 14-3-3 Proteins that Display Atypical Target Recognition” (PLoS ONE, 2010)

How the values were obtained:
GST-I K77E +II K56E = assay: NC-filter binding assay, mutant heterodimer; parameters: species or system Trypanosoma brucei
Protocol: I K77E: 5′-[…]-3′, 5′-[…]-3′; and II K56E: 5′-[…]-3′, 5′-[…]-3′. The sequences were confirmed.
(§1) Five µl of 1 mM biotinylated peptides, purchased from Scrum (Japan) were mixed with 15 µl of streptavidine (1 mg/ml) in the presence of 0.1% Tween20, spotted on NC-filters and dried. Filters were washed with TTBS, blocked with Protein-Free Blocking Buffer (Pierce), and then incubated with GST-14-3-3 proteins in TTBS containing 20% Protein-Free Blocking Buffer and 1 mM DTT. The filters were extensively washed four times with TTBS, and detected with anti-GST antibodies.

[1] = test system: heterodimeric T. brucei 14-3-3I+II; assay: NC-filter binding assay, heterodimeric T. brucei 14-3-3; parameters: species or system Trypanosoma brucei; settings: biotinylated peptide + streptavidine on nitrocellulose filter; GST-14-3-3 detected with α-GST antibodies
Protocol: as §1

human 14-3-3ζ = assay: NC-filter binding assay, human 14-3-3ζ
Protocol: as §1

human 14-3-3τ = biological target: T1, human 14-3-3τ (Homo sapiens, UniProt P27348); assay: Surface plasmon resonance (BIAcore), phosphopeptide vs 14-3-3τ; type: binding; settings: 200 nM GST-14-3-3τ; peptide 296 RU on SA5 chip; HBS-EP buffer
T1 construct: made in house
T1 sequence (P27348 1-245): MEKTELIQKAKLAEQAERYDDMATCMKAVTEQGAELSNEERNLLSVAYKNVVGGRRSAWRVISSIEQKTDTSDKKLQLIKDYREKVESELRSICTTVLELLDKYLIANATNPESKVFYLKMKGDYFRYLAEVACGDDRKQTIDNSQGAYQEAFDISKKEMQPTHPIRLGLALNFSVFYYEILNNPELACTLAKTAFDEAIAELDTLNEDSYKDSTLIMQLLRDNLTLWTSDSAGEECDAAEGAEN
Protocol: (§2) The surface plasmon resonance measurement was carried out using BIAcore 2000. A resonance unit value of 220 of biotinylated phosphopeptide pSRaf 259 (biotin-MAGGGRQRSTpSTPN) (mode 1 peptide) was coupled to a streptavidin-coated sensor chip (SA5, BIAcore). In the next step, 200 nM each of purified GST-14-3-3I, GST-14-3-3II, and GST–14-3-3τ, or 500 nM each of MBP-14-3-3I, MBP-14-3-3II, and MBP-14-3-3τ in HBS-EP buffer (BIAcore) was injected at a flow rate of 20 µl/min. A resonance unit value of 296 of biotinylated mode 2 peptide (biotin-MAGGGRLYHpSLP) was also coupled to SA5 and 200 nM each of GST-14-3-3I, GST-14-3-3II and GST-14-3-3τ in HBS-EP buffer, and was injected in the same manner.

T. brucei 14-3-3I = assay: Surface plasmon resonance (BIAcore), phosphopeptide vs 14-3-3I; type: binding, Trypanosoma brucei; settings: 200 nM GST-14-3-3I; peptide 296 RU on SA5 chip; HBS-EP buffer
Protocol: as §2

T. brucei 14-3-3II = assay: Surface plasmon resonance (BIAcore), phosphopeptide vs 14-3-3II; type: binding, Trypanosoma brucei; settings: 200 nM GST-14-3-3II; peptide 296 RU on SA5 chip; HBS-EP buffer
Protocol: as §2

human GST-14-3-3ζ = assay: Far-Western blot of immunoprecipitated V5-tagged proteins, probe GST-14-3-3ζ; type: binding; settings: protein expressed in HEK293T cells, immunoprecipitated with anti-V5
Excerpt: (§3) We first examined whether a putative protein phosphatase 2c (PP2c) in the list interacts with T. brucei 14-3-3 proteins, since the phenotype of knockdown of 14-3-3I and/or II resembled that of okadaic acid, a potent serine/threonine phosphatase inhibitor, -treated T. brucei cells and PP2c has a putative mode 3 motif. The N-terminally V5-tagged PP2c protein was expressed in human HEK293T cells and purified by immunoprecipitation using anti-V5 monoclonal antibody (Ab). Far-WB probing with GST-14-3-3 proteins was used to detect the direct interaction. We have recently identified the heterodimeric form as the major form of T. brucei 14-3-3 proteins (unpublished data) and thus, recombinant heterodimeric GST-II +I was used as a probe. […] We further confirmed that the binding was mediated by intact mode 3 motif (Figure 2B).
Figure 2 Interaction of T. brucei PP2c with T. brucei and human 14-3-3 proteins. (A) and (B) Mammalian expression vectors pCR3 N-V5-PP2c, –PP2c S744A or -C-terminal mutants of PP2c were transiently transfected to HEK293T cells. The cell lysates were subjected to immunoprecipitation with α-V5 Ab followed by far-Western blot analyses (Far-WB) using indicated probes (upper panel). Immunoprecipitated proteins were reprobed with α-V5 Ab (lower panel). […] The filters were then incubated with indicated GST-14-3-3 proteins and detected with α-GST antibodies. […]

[2] = test system: endogenous 14-3-3I and II; assay: Co-immunoprecipitation with α-V5 Ab in T. brucei PCF cells; type: cell-based, Trypanosoma brucei; settings: Tet-inducible T. brucei PCF clones; Western blot with mixture of α-I and α-II Ab
Excerpt: Figure 2 Interaction of T. brucei PP2c with T. brucei and human 14-3-3 proteins. (A) and (B) Mammalian expression vectors pCR3 N-V5-PP2c, –PP2c S744A or -C-terminal mutants of PP2c were transiently transfected to HEK293T cells. The cell lysates were subjected to immunoprecipitation with α-V5 Ab followed by far-Western blot analyses (Far-WB) using indicated probes (upper panel). Immunoprecipitated proteins were reprobed with α-V5 Ab (lower panel). (C) Modes 1-3 phosphopeptides summarized in Table 1 have far less affinity to T. brucei 14-3-3 than human 14-3-3ζ proteins. Indicated biotinylated phosphopeptides were mixed with streptavidine and spotted to nitrocellulose filters and dried. The filters were then incubated with indicated GST-14-3-3 proteins and detected with α-GST antibodies. (D) Tet-inducible T. brucei expression vector, pLew82 T7bsr-N-V5-PP2c was transfected and clones were isolated with blasticidin selection. Tet-uninduced (Tet−) or –induced (Tet +) cell lysates of the clone were subjected to immunoprecipitation followed by Western blotting using a mixture of α-I and II Ab (lower panel), and horseradish peroxidase (HRP)-labeled α-V5 Ab (upper panel).
(§4) Figure 3 p31-SAP binds to T. brucei 14-3-3 proteins in vivo (PCF cells). […] Immunoprecipitated proteins were analyzed by Far-WB with GST-II + I as a probe (upper panel). […]

T. brucei GST-II +I = assay: Far-Western blot of immunoprecipitated V5-tagged proteins, probe GST-II +I; type: binding, Trypanosoma brucei; settings: protein expressed in HEK293T cells, immunoprecipitated with anti-V5
Excerpt: as §3
Figure 2 Interaction of T. brucei PP2c with T. brucei and human 14-3-3 proteins. (A) and (B) Mammalian expression vectors pCR3 N-V5-PP2c, –PP2c S744A or -C-terminal mutants of PP2c were transiently transfected to HEK293T cells. […] The filters were then incubated with indicated GST-14-3-3 proteins and detected with α-GST antibodies. […]
as §4

MGGGHVSGLKRRRpSV [synthetic mode 3 phosphopeptide derived from p31-SAP]
binding of mutant 14-3-3 to p31-SAP derived peptide (GST-I K77E +II K56E): prevent the binding to the p31-SAP derived peptide | interaction with spotted phosphopeptide [1]: clearly detected | affinity to p31-SAP derived phosphopeptide, human 14-3-3ζ vs T. brucei 14-3-3 (human 14-3-3ζ; NC-filter, relative to T. brucei 14-3-3): slightly higher affinity to the p31-SAP derived phosphopeptide than T. brucei 14-3-3 | interaction with spotted phosphopeptide (human 14-3-3ζ; biotinylated peptide + streptavidine on nitrocellulose filter, GST-14-3-3ζ detected with α-GST antibodies): interacts with both phosphopeptides but with the preferential binding to the mode 3 peptide derived from p31-SAP

biotin-MAGGGRLYHpSLP [mode 2 phosphopeptide, biotinylated mode 2 peptide (biotin-…pSLP)]
binding pattern of the sensorgram, mode 2 (human 14-3-3τ): bound to the mode 2 phosphopeptide | binding pattern of the sensorgram, mode 2 (T. brucei 14-3-3I): neither GST-14-3-3I nor GST–14-3-3II showed any binding | binding pattern of the sensorgram, mode 2 (T. brucei 14-3-3II): neither GST-14-3-3I nor GST–14-3-3II showed any binding

B1: V5-tagged PP2c: N-terminally V5-tagged putative T. brucei protein phosphatase 2c (Tb927.7.4020) (protein)
chain: MYTSVRKPPLSTAKLSEKTDAAGKGNLNGVAESPTSRDGGIGSSMPYVARKPNSGDGQGRPGEVQRAGQVTYQTTNALFTGSTVPGKTKDVSTAKSSGGGDHLNNGDRPPLVGDNNEVSSPRTIKMNSSPPRRYFHRGAINCNSSENVAAVLGGSTLISGERVGSGSGYPRRVFSGPPSTRMLNQGGEEPAQKPQPPGSSRSKSGIRQLQFALNGNSSQRLLPVPPRQLCPSNPARRGGGAATVTPRCSDARRQKQDSTDPFDMTQVLNGVGTQLGLPSYCPGAESSQGSNRLRGSKPPSPSLLPLASLRSQQMPSTAGVPAPRSLSESQQLSINPSGVFGCATDCKNGLGYDFRVVASTGKSFNLPIKLTAGVGCVQGLRPTMEDEHFIRLQATTAVGQPVSLLGILDGHCGRRVAELAAKHVPDNFIAHPALGENNALAFVESIIQADRAIFHSIGKGSGGVGLSAGFGGSGGSTLIAAAVHGRMLYVACLGDARAVLYDGNTTIPMSEDHKPLNKKEHTRILQCGGFVQLGRVCGVLAVSRALGDYEFKFNGNRFISNRELMVSNVADVRQINLTDSSKFLLLACDGLWDAVQNEEATQFVRDFLSYTPDVGSSPEATKRAINNCCQKLAEFAVSRGSTDNVSVMLLFFHNVADVVASFDRASDATTSRATVTSPVSPRLFSASRGVNAGFTGMESRLAGISGGSSSGAFGGSSGAEGSSVRGAGRTKVDRGASWLTRSRSLW
modifications: left off: V5, N-terminal, kept
direct binding by Far-WB (human GST-14-3-3ζ): directly bound to GST-14-3-3ζ with high affinity | co-immunoprecipitation with 14-3-3I and II [2]: failed to show the interaction of 14-3-3 with PP2c | direct binding by Far-WB (T. brucei GST-II +I): to T. brucei GST-II +I (heterodimerized recombinant proteins) with lower affinity
